According to ChEMBL document CHEMBL5291721, “A preclinical secondary pharmacology resource illuminates target-adverse drug reaction associations of marketed drugs” (Nat Commun, 2023):

Key:
[1] = biological target: T1, Amine oxidase [flavin-containing] A (Homo sapiens, UniProt P21397); assay type: functional
T1 sequence (P21397 whole entry): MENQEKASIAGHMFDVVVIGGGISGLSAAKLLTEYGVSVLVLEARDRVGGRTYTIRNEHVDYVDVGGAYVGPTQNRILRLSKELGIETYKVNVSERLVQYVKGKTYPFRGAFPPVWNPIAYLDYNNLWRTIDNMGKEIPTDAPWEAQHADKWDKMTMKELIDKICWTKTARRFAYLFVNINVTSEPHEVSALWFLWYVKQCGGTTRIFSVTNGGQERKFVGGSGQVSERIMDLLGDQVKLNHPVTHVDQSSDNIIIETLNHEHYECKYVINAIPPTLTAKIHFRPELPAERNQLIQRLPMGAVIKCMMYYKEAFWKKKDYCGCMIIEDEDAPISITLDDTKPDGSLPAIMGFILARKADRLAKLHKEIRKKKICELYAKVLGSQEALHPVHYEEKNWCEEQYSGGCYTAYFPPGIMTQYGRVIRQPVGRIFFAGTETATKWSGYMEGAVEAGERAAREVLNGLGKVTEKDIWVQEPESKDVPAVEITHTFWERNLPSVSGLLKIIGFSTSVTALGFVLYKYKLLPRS

Progesterone receptor = biological target: T2, Progesterone receptor (Homo sapiens, UniProt P06401); assay type: functional
T2 sequence (P06401 whole entry): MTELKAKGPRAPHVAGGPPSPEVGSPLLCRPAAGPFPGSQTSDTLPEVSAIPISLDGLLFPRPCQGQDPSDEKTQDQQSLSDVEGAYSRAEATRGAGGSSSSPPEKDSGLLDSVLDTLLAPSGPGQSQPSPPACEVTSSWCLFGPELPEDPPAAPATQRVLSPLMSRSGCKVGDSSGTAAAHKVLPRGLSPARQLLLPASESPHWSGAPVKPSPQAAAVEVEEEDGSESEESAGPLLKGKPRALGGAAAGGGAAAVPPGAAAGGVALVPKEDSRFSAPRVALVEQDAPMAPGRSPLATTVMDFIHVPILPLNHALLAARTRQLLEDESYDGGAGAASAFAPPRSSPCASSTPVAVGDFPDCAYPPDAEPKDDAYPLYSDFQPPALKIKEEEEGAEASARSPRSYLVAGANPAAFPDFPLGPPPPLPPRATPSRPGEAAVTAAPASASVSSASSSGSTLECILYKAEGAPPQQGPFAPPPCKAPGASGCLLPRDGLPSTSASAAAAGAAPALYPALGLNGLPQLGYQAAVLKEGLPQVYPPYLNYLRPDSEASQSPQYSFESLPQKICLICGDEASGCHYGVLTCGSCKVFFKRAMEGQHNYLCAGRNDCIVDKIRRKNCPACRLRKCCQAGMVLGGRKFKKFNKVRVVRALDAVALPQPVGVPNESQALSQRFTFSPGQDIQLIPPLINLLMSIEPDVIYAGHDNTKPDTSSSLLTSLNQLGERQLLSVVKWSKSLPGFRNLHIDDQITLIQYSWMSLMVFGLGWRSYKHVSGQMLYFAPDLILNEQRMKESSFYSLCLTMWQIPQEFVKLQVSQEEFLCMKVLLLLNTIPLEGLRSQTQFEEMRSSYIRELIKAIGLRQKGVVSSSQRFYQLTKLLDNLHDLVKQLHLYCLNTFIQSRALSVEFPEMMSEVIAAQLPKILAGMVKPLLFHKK

[2] = biological target: Growth hormone secretagogue receptor type 1 (Homo sapiens, UniProt Q92847)
Sequence of Growth hormone secretagogue receptor type 1 (Q92847 whole entry): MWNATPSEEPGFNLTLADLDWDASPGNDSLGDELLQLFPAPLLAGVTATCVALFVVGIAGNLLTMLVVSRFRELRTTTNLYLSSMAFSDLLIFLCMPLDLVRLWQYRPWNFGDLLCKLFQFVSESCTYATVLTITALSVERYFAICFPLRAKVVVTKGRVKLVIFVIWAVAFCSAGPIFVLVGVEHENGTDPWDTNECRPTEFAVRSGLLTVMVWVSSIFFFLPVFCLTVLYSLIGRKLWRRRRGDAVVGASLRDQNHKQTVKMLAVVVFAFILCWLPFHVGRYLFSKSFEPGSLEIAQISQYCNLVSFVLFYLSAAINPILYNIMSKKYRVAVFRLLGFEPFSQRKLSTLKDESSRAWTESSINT

[3] = biological target: cGMP-inhibited 3',5'-cyclic phosphodiesterase 3A (Homo sapiens, UniProt Q14432); assay type: functional
Sequence of cGMP-inhibited 3',5'-cyclic phosphodiesterase 3A (Q14432 whole entry): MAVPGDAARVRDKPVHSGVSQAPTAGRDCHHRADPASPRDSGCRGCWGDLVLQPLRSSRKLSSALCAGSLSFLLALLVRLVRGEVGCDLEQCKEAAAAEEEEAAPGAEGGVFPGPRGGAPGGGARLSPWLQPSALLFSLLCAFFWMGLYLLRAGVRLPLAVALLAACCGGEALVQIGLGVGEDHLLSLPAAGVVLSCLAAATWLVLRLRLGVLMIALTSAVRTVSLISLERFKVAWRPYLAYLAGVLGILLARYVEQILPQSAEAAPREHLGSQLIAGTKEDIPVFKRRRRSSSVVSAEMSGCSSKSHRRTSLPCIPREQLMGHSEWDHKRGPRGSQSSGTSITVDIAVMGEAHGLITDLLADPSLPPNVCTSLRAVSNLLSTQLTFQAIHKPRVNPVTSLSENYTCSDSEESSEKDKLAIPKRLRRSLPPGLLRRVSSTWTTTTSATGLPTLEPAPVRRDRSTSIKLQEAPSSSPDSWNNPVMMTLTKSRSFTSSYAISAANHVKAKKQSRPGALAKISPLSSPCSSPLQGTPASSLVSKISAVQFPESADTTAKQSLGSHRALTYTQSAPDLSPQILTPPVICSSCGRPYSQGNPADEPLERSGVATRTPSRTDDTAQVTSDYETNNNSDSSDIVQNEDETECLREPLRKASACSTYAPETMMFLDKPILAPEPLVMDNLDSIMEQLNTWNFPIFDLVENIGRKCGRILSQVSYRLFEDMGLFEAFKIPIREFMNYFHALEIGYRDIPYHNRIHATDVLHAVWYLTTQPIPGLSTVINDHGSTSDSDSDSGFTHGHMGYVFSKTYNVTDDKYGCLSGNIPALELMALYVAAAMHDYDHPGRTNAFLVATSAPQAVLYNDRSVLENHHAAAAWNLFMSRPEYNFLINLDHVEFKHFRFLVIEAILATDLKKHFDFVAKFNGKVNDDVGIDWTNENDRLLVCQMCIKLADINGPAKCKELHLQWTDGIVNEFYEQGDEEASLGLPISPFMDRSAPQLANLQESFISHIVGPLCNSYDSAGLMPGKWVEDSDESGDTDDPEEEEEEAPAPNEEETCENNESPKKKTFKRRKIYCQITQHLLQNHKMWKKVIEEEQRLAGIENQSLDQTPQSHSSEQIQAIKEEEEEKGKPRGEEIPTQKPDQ

[4] = biological target: T3, Type-1 angiotensin II receptor (Homo sapiens, UniProt P30556)
T3 sequence (P30556 whole entry): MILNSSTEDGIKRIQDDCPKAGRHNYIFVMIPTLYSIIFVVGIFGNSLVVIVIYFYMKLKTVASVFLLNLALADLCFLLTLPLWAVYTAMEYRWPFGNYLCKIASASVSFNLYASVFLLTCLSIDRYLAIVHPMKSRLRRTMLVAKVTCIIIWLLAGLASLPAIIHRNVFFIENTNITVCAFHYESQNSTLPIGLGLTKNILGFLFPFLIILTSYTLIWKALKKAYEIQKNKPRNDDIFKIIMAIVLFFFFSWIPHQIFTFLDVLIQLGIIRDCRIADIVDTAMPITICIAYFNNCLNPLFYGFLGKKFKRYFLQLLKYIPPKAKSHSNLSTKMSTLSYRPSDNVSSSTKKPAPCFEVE

[5] = biological target: T4, Gastrin/cholecystokinin type B receptor (Homo sapiens, UniProt P32239)
T4 sequence (P32239 whole entry): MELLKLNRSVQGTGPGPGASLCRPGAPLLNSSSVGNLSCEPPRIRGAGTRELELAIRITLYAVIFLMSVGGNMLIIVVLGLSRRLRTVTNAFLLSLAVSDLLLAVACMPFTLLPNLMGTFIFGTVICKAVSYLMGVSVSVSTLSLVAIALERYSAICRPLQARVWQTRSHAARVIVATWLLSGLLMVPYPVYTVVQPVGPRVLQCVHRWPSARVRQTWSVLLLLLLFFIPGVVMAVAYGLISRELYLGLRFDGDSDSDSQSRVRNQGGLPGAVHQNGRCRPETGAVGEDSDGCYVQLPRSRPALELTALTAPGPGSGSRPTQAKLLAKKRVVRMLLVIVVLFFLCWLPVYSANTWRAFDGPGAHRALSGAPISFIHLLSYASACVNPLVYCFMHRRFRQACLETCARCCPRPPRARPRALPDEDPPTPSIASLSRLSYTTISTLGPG

[6] = biological target: T5, Alpha-1A adrenergic receptor (Homo sapiens, UniProt P35348); assay type: functional, cell-based
T5 sequence (P35348 whole entry): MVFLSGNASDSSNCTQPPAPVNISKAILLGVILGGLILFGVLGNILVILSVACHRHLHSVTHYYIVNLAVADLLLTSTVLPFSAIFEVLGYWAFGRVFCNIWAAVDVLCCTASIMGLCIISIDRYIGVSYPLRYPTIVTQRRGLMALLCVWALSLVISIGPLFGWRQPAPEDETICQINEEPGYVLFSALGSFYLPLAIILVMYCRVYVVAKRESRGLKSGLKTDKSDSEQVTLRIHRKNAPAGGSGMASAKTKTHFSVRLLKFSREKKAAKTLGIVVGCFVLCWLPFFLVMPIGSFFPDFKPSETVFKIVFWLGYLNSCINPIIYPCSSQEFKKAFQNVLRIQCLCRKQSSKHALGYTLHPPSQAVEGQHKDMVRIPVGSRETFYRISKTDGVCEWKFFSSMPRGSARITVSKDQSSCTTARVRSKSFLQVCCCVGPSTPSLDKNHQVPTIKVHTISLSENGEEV

[7] = biological target: Beta-2 adrenergic receptor (Homo sapiens, UniProt P07550)
Sequence of Beta-2 adrenergic receptor (P07550 whole entry): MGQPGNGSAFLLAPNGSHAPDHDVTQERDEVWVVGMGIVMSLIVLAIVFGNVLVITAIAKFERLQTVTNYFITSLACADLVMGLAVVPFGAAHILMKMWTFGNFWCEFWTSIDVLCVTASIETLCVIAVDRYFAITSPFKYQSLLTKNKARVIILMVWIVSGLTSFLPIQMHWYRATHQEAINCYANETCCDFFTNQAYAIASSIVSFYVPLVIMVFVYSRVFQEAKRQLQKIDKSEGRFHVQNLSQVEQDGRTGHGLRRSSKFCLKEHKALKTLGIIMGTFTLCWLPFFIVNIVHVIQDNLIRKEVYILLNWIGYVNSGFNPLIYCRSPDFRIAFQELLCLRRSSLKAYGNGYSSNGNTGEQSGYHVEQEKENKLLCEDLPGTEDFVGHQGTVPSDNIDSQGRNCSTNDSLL

Vasopressin V1a receptor = Vasopressin V1a receptor (Homo sapiens, UniProt P37288)
Sequence of Vasopressin V1a receptor (P37288 whole entry): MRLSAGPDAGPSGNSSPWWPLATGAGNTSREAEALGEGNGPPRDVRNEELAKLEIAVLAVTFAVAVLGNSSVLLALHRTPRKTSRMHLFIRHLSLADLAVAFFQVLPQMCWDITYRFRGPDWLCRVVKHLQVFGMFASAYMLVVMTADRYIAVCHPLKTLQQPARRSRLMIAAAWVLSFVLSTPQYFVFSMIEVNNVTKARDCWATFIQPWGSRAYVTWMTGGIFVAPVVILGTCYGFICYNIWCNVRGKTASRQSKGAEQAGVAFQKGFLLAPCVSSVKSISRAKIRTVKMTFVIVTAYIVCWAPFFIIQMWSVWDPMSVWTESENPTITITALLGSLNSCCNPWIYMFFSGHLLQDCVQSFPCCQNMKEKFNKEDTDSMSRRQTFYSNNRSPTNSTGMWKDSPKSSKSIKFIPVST
Note: assay procedure not described here.

Compound	AC50 [1] [µM]	AC50 (Progesterone receptor) [µM]	AC50 [2] [µM]	AC50 [3] [µM]	AC50 [4] [µM]	AC50 [5] [µM]	AC50 [6] [µM]	AC50 [7] [µM]	AC50 (Vasopressin V1a receptor) [µM]
OCc1cc(C(O)CNCCCCCCOCCCCc2ccccc2)ccc1O (stereo unspecified) [SALMETEROL]	> 10	> 30	> 30	> 30	> 30	> 30	–	–	–
COc1cc2ncnc(Nc3ccc(F)c(Cl)c3)c2cc1NC(=O)/C=C/CN1CCCCC1 [DACOMITINIB ANHYDROUS]	> 30	> 10	–	> 30	–	–	> 30	–	–
Cn1cnc2c(F)c(Nc3ccc(Br)cc3Cl)c(C(=O)NOCCO)cc21 [SELUMETINIB]	> 10	–	–	> 30	–	–	–	> 10	–
CC(=O)OCC(=O)[C@@]1(O)[C@H](C)C[C@H]2[C@@H]3CCC4=CC(=O)C=C[C@]4(C)[C@@]3(F)[C@@H](O)C[C@@]21C [DEXAMETHASONE ACETATE]	> 10	–	> 30	> 30	> 30	> 30	> 30	> 10	> 30
C/C(=C\C(=O)OCCCCCCCCC(=O)O)C[C@@H]1OC[C@H](C[C@@H]2O[C@H]2[C@@H](C)[C@H](C)O)[C@@H](O)[C@H]1O [MUPIROCIN]	> 10	> 10	> 10	> 30	> 10	–	–	> 10	–
O=C1CN=C(c2ccccc2)c2cc([N+](=O)[O-])ccc2N1 [NITRAZEPAM]	> 10	> 10	> 10	> 30	> 30	–	–	> 10	–
NC(=O)CN1CCCC1=O	> 30	> 30	> 30	> 30	> 30	> 30	> 30	–	–
CC(=O)[C@]1(O)Cc2c(O)c3c(c(O)c2[C@@H](O[C@H]2C[C@H](N)[C@H](O)[C@H](C)O2)C1)C(=O)c1ccccc1C3=O [IDARUBICIN]	> 30	–	7.7	> 30	> 30	> 30	–	> 30	> 30
Cn1c(=O)cc(N2CCC[C@@H](N)C2)n(Cc2ccccc2C#N)c1=O [ALOGLIPTIN]	–	–	> 30	> 30	> 30	> 30	–	> 10	> 10
CCCCCC(=O)O[C@]1(C(C)=O)CC[C@H]2[C@@H]3CCC4=CC(=O)CC[C@]4(C)[C@H]3CC[C@@]21C [HYDROXYPROGESTERONE CAPROATE]	> 30	–	> 30	30	> 30	> 30	> 30	> 30	> 30
CCOC(=O)O[C@]1(C(=O)OCCl)CC[C@H]2[C@@H]3CCC4=CC(=O)C=C[C@]4(C)[C@H]3[C@@H](O)C[C@@]21C [LOTEPREDNOL ETABONATE]	> 30	–	> 30	> 30	> 30	> 30	> 30	> 30	> 30
CCN(CC)CCN1C(=O)CN=C(c2ccccc2F)c2cc(Cl)ccc21 [FLURAZEPAM]	> 10	–	22.9	> 30	> 30	> 30	> 30	> 10	–
Oc1ccc2c(c1)[C@@]13CCCC[C@@]1(O)[C@@H](C2)N(CC1CCC1)CC3 [BUTORPHANOL]	> 30	> 30	> 30	> 30	> 30	> 30	> 30	–	> 30
C#CCOc1ccc(N)cc1C(=O)NCCCC [PARSALMIDE]	> 30	> 30	> 30	> 30	> 30	> 30	–	–	> 30
COc1ccc2nc3cc(Cl)ccc3c(Nc3cc(CN4CCCC4)c(O)c(CN4CCCC4)c3)c2n1 [PYRONARIDINE]	> 30	–	26	5.7	> 30	> 30	> 30	> 30	> 30
CN(C(=O)c1c(O)c2ccccc2n(C)c1=O)c1ccccc1 [ROQUINIMEX]	> 30	29	–	> 30	–	–	> 30	–	–
Cc1ncc2n1-c1ccc(Cl)cc1C(c1ccccc1F)=NC2 [MIDAZOLAM]	> 10	–	> 30	> 30	> 30	> 30	> 30	> 10	–
CCN1CCCC1CNC(=O)c1cc(S(=O)(=O)CC)c(N)cc1OC (stereo unspecified) [AMISULPRIDE]	> 30	> 30	> 30	> 30	> 30	> 30	> 30	–	–
COc1cc2c(cc1OC)C(CCc1ccc(Cl)cc1)N(C)CC2 (stereo unspecified) [METHOPHOLINE]	11	> 30	> 30	> 30	> 30	–	–	> 30	> 30
Nc1cc(-c2ccncc2)c[nH]c1=O [INAMRINONE]	> 10	–	> 30	–	> 30	> 30	> 30	> 10	–
CC(=O)[C@@]1(O)CC[C@H]2[C@@H]3C=C(Cl)C4=CC(=O)[C@@H]5C[C@@H]5[C@]4(C)[C@H]3CC[C@@]21C [CYPROTERONE]	> 10	–	> 10	16	> 30	–	–	> 10	> 10
